Measured values taken from article PMC6445162, “Effects of NS2B-NS3 protease and furin inhibition on West Nile and Dengue virus replication” (Journal of Enzyme Inhibition and Medicinal Chemistry, 2017).
Peptide text beside a SMILES is read from it.

Assays:
[1] = target: covalently linked WNV NS2B-NS3 protease construct (West Nile virus) (UniProt P06935); assay: enzyme inhibition kinetics (Ki from Dixon plots, fluorogenic substrate); WNV NS2B-NS3 construct ~4 nM in assay; substrate Phac-Leu-Lys-Lys-Arg-AMC 50, 100 and 200 µM (KM = 47.5 µM); 100 mM Tris pH 8.5, 20% glycerol, 0.01% Triton X-100; room temperature; Ki the average of at least two measurements
WNV NS2B-NS3 protease = target: T1, WNV NS2B-NS3 protease (West Nile virus, UniProt P06935); assay: Enzyme kinetic inhibition of WNV NS2B-NS3 protease construct (Dixon plot); format: biochemical; conditions: covalently linked WNV NS2B-NS3 construct; substrate Phac-Leu-Lys-Lys-Arg-AMC; Dixon plots, average of at least two measurements
T1 construct: WNV NS2B 40-amino acid cofactor together with the NS3 protease domain
Experimental: (§1) All measurements were performed at room temperature in black flat-bottom 96-well plates (Nunc, Langenselbold, Germany) using microplate readers (Tecan Safire^2, λex = 380 nm and λem = 460 nm, Tecan Group Ltd., Männedorf, Switzerland or Fluoroskan Ascent type 374, λex = 355 nm and λem = 460 nm; Thermo Fisher Scientific, Vantaa, Finland). The assays with the flavivirus protease constructs were performed with 125 μl buffer (100 mM Tris pH 8.5 containing 20% glycerol, 0.01% Triton X-100, and the inhibitor), 50 μl substrate solution, and were started by addition of 25 μl enzyme solution (total assay volume 200 μl).
For measurements with the covalently linked WNV NS2B-NS3 protease construct (∼4 nM in assay) the substrate Phac-Leu-Lys-Lys-Arg-AMC ×3 TFA (50 µM, 100 µM and 200 µM in assay, KM = 47.5 µM) was used, as described previously.
(§2) The DENV serotype 2 NS2B-NS3 protease construct was prepared from an identical clone as described by D’Arcy et al.[26] The purification of the protease was carried out in a buffer with high ion-strength and low pH value, in the absence of glycerol (20 mM Bis-Tris, 500 mM NaCl, pH 6.3), in order to prevent autolysis of the enzyme. Purification was performed by using a 5 ml HisTrapTM FF column (GE Healthcare) and subsequently, a HiLoad 16/60 SuperdexTM 75 column (GE Healthcare). The assays with the DENV-2 NS2B-NS3^pr° (∼39 nM in well) were performed with the substrate Phac-Lys-Arg-Arg-AMC ×3 TFA (125 µM, 62.5 µM and 31.25 µM in assay, KM = 60 µM). All Ki values were obtained from Dixon plots[27] and are the average of at least two measurements. Due to the weak potency of most compounds against the DENV-2 NS2B-NS3 protease construct, only the percentage of inhibition at a constant inhibitor concentration of 100 µM in the presence of 125 µM substrate was determined.

[2] = target: T2, DENV serotype 2 NS2B-NS3 protease (Dengue virus type 2, UniProt P14340); assay: Enzyme kinetic inhibition of DENV-2 NS2B-NS3 protease construct; format: biochemical, Dengue virus serotype 2; conditions: for inhibition at 100 µM: 100 μM inhibitor in the presence of 125 μM substrate, read-out: % Inhib. (DENV)
T2 construct: The proteolytic activity of WNV and DENV is located in the N-terminal part of its NS3 protein; made in house
Experimental: as §1, §2

Molecule	Ki [1]	Ki (WNV NS2B-NS3 protease)	inhibition at 100 µM [2]	also measured
3-GMe-Phac-Lys-Lys-Arg-NH2 (peptide)	0.18 µM			
N=C(N)NCCC[C@H](NC(=O)[C@H](CCCCN)NC(=O)[C@H](CCCCN)NC(=O)Cc1ccccc1)C(N)=O [inhibitor 27] (HELM PEPTIDE1{[O=C(Cc1ccccc1)[*:2]].K.K.R.[am]}$$$$V2.0)		2.47 µM	20.8%	
C[C@H](NC(=O)[C@H](CCCNC(=N)N)NC(=O)[C@H](CCCCN)NC(=O)[C@H](CCCCN)NC(=O)Cc1ccccc1)C(N)=O [inhibitor 19] (HELM PEPTIDE1{[O=C(Cc1ccccc1)[*:2]].K.K.R.A.[am]}$$$$V2.0)		25 µM	5.6%	
N=C(N)NCCC[C@H](NC(=O)[C@H](CCCCN)NC(=O)[C@H](CCCCN)NC(=O)CC12CC3CC(CC(C3)C1)C2)C(N)=O [inhibitor 43]		13.8 µM	24.2%	
N=C(N)NCc1ccc(CC(NC(=O)Cc2ccccc2)C(=O)NC(CCCCN)C(=O)NCC2CCC(NC(=N)N)CC2)cc1 (centres unmarked) [inhibitor 9]		44 µM		
4-AMe-Phac-Lys-Lys-Arg-NH2 (peptide)	0.38 µM			
3,4-Cl2-Phac-Lys-Lys-Arg-NH2 (peptide)	1.13 µM			
Phac-Lys-Lys-Arg-Aca-NH2 (peptide)	17 µM			
N=C(N)NCCC[C@H](NC(=O)[C@H](CCCCN)NC(=O)[C@H](CCCCN)NC(=O)Cc1ccc(CNC(=N)N)cc1)C(N)=O [inhibitor 38, 4-(guanidinomethyl)-phenylacetyl-Lys-Lys-Arg-NH2]		0.11 µM	65%	
AC-D/L-α-phenylglycine-Lys-Lys-Arg-NH2 (peptide)	4.18 µM			
4-OH-Phac-Lys-Lys-Arg-NH2 (peptide)	0.54 µM			
3,4-(Methylenedioxy)-Phac-Lys-Lys-Arg-NH2 (peptide)	0.68 µM			
α-Cyclohexylglycine-Lys-Lys-Arg-NH2 (peptide)	26.3 µM			
N=C(N)NCCC[C@H](NC(=O)[C@H](CCCCN)NC(=O)[C@H](CCCCN)NC(=O)Cc1ccccc1)C(=O)NCCCC(N)=O [inhibitor 25] (HELM PEPTIDE1{[O=C(Cc1ccccc1)[*:2]].K.K.R.[O=C(CCCN[*:1])[*:2]].[am]}$$$$V2.0)		15 µM	26.3%	
Phac-Lys-Lys-Arg-Tle-NH2 (peptide)	140 µM			
N=C(N)NCCC[C@H](NC(=O)[C@H](CCCCN)NC(=O)[C@H](CCCCN)NC(=O)Cc1ccc(O)cc1)C(N)=O [inhibitor 33]		0.54 µM	27.5%	
Phac-Lys-Lys-Arg-NH2 (peptide)	2.47 µM			
N=C(N)NCCC[C@H](NC(=O)[C@H](CCCCN)NC(=O)[C@H](CCCCN)NC(=O)Cc1ccccc1)C(=O)NCCCCCC(N)=O [inhibitor 26] (HELM PEPTIDE1{[O=C(Cc1ccccc1)[*:2]].K.K.R.[O=C(CCCCCN[*:1])[*:2]].[am]}$$$$V2.0)		17 µM		
4-GMe-Phac-Lys-Lys-GCMA		0.23 µM		Ki ([2]; DENV-2 NS2B-NS3 construct, substrate Phac-Lys-Arg-Arg-AMC, Dixon plots): 67 µM
N=C(N)NCCC[C@H](NC(=O)[C@H](CCCCN)NC(=O)[C@H](CCCCN)NC(=O)C(N)C1CCCCC1)C(N)=O (some centres unmarked) [inhibitor 42] (HELM PEPTIDE1{[NC(C(=O)[*:2])C1CCCCC1].K.K.R.[am]}$$$$V2.0)			31.7%	
D/L-α-phenylglycine-Lys-Lys-Arg-NH2 (peptide)	3.6 µM			
C[C@@H](NC(=O)[C@H](CCCNC(=N)N)NC(=O)[C@H](CCCCN)NC(=O)[C@H](CCCCN)NC(=O)Cc1ccccc1)C(N)=O [inhibitor 20] (HELM PEPTIDE1{[O=C(Cc1ccccc1)[*:2]].K.K.R.[dA].[am]}$$$$V2.0)		75 µM	12%	
N=C(N)NCCC[C@H](NC(=O)[C@H](CCCCN)NC(=O)[C@H](CCCCN)NC(=O)Cc1ccc2c(c1)OCO2)C(N)=O [inhibitor 32]		0.68 µM	19.9%	

Molecule	Ki [1]	Ki (WNV NS2B-NS3 protease)	inhibition at 100 µM [2]	also measured
N=C(N)NCCC[C@H](NC(=O)[C@H](CCCCN)NC(=O)[C@H](CCCCN)NC(=O)Cc1ccccc1)C(=O)O [inhibitor 28, Phac-Lys-Lys-Arg-OH] (HELM PEPTIDE1{[O=C(Cc1ccccc1)[*:2]].K.K.R}$$$$V2.0)		27 µM		
CC(C)[C@H](NC(=O)[C@H](CCCNC(=N)N)NC(=O)[C@H](CCCCN)NC(=O)[C@H](CCCCN)NC(=O)Cc1ccccc1)C(N)=O [inhibitor 21] (HELM PEPTIDE1{[O=C(Cc1ccccc1)[*:2]].K.K.R.V.[am]}$$$$V2.0)		105 µM	12%	
N=C(N)NCCC[C@H](NC(=O)[C@H](CCCCN)NC(=O)[C@H](CCCCN)NC(=O)Cc1ccccc1)C(=O)NCC(=O)NCC(N)=O [inhibitor 17] (HELM PEPTIDE1{[O=C(Cc1ccccc1)[*:2]].K.K.R.G.G.[am]}$$$$V2.0)		1.56 µM	35.1%	
Phac-Lys-Lys-Arg-Gaba-NH2 (peptide)	15 µM			
N=C(N)NCCC[C@H](NC(=O)[C@H](CCCCN)NC(=O)[C@H](CCCCN)NC(=O)Cc1ccc(-c2ccccc2)cc1)C(N)=O [inhibitor 34]		0.53 µM	27.1%	
CC(C)(C)[C@H](NC(=O)[C@H](CCCNC(=N)N)NC(=O)[C@H](CCCCN)NC(=O)[C@H](CCCCN)NC(=O)Cc1ccccc1)C(N)=O [inhibitor 22] (HELM PEPTIDE1{[O=C(Cc1ccccc1)[*:2]].K.K.R.[CC(C)(C)[C@H](N[*:1])C(=O)[*:2]].[am]}$$$$V2.0)		140 µM	6.4%	
N=C(N)NCCC[C@H](NC(=O)[C@H](CCCCN)NC(=O)[C@H](CCCCN)NC(=O)CC1CCCCC1)C(N)=O [inhibitor 41]		4.8 µM	36.7%	
N=C(N)NCCC[C@H](NC(=O)[C@H](CCCCN)NC(=O)[C@H](CCCCN)NC(=O)Cc1ccc(Cl)c(Cl)c1)C(N)=O [inhibitor 29]		1.13 µM	25.1%	
N=C(N)NCCC[C@H](NC(=O)[C@H](CCCCN)NC(=O)[C@H](CCCCN)NC(=O)Cc1ccc(Cl)c(Cl)c1)C(=O)NCC(N)=O [inhibitor 30] (HELM PEPTIDE1{[O=C(Cc1ccc(Cl)c(Cl)c1)[*:2]].K.K.R.G.[am]}$$$$V2.0)		1.8 µM	45%	
3-NH2-Phac-Lys-Lys-Arg-NH2 (peptide)	1.2 µM			
1-Adamantylglycine-Lys-Lys-Arg-NH2 (peptide)	70 µM			
Phac-Lys-Lys-Arg-Gly-NH2 (peptide)	2.56 µM			
Cyclohexylacetic acid-Lys-Lys-Arg-NH2 (peptide)	4.8 µM			
Phac-Lys-Lys-Arg-Sar-NH2 (peptide)	50 µM			
Phac-Lys-Lys-Arg-DAla-NH2 (peptide)	75 µM			
3-AMe-Phac-Lys-Lys-Arg-NH2 (peptide)	0.36 µM			
Phac-Lys-Lys-Arg-Pro-NH2 (peptide)	200 µM			
Phac-Lys-Lys-Arg-Ala-NH2 (peptide)	25 µM			
1-Adamantylacetic acid-Lys-Lys-Arg-NH2 (peptide)	13.8 µM			
Phac-Lys-Lys-Arg-Val-NH2 (peptide)	105 µM			
3,4-Cl2-Phac-Lys-Lys-Arg-Gly-NH2 (peptide)	1.8 µM			
4-Phenyl-Phac-Lys-Lys-Arg-NH2 (peptide)	0.53 µM			
KKRGG (HELM PEPTIDE1{[O=C(Cc1ccccc1)[*:2]].K.K.R.G.G.[am]}$$$$V2.0; SMILES N=C(N)NCCC[C@H](NC(=O)[C@H](CCCCN)NC(=O)[C@H](CCCCN)NC(=O)Cc1ccccc1)C(=O)NCC(=O)NCC(N)=O) [Phac-Lys-Lys-Arg-Gly-Gly-NH2]	1.56 µM			
